Reference: BindingDB's records for doi:10.1016/j.bmcl.2016.07.066 (Presidio Pharmaceuticals, 2016)

Assays:
[1] = Inhibition of HCV genotype 3a replicons NS5A infected in human Huh7 cells by luciferase reporter gene assay
[2] = Inhibition of HCV genotype 1b replicons NS5A infected in human Huh7 cells by luciferase reporter gene assay
[3] = Inhibition of HCV genotype 1a replicons NS5A infected in human Huh7 cells by luciferase reporter gene assay
[4] = Inhibition of HCV genotype 3a replicon NS5A
[5] = Inhibition of HCV genotype 1a replicon NS5A S2204I mutant infected in human Huh7 cells
[6] = Inhibition of HCV genotype 1b replicon NS5A S2204I mutant infected in human Huh7 cells

SMILES | EC50 [1] | EC50 [2] | EC50 [3] | EC50 [4] | EC50 [5] | EC50 [6]
COC(=O)N[C@H](NC(=O)N1CCC[C@H]1c1ncc(-c2ccc(-c3ccc(-c4cnc([C@@H]5CCCN5C(=O)[C@@H](NC(=O)OC)C(C)C)[nH]4)cc3)cc2)[nH]1)C(C)C | 0.67 nM | 0.073 nM | 0.14 nM | 0.146 nM | 0.05 nM | 0.009 nM
COC(=O)N[C@H](NC(=O)N1CCC[C@H]1c1nc2ccc(-c3ccc4cc(-c5cnc([C@@H]6CCCN6C(=O)[C@@H](NC(=O)OC)[C@@H](C)OC)[nH]5)ccc4c3)cc2[nH]1)[C@@H](C)OC | 1.5 nM | 0.047 nM | 0.13 nM |  |  | 
CC[C@H](C)[C@H](NC(=O)OC)NC(=O)N1CCC[C@H]1c1nc2ccc(-c3ccc4cc(-c5cnc([C@@H]6CCCN6C(=O)[C@@H](NC(=O)OC)[C@@H](C)CC)[nH]5)ccc4c3)cc2[nH]1 | 2.3 nM | 0.015 nM | 0.11 nM |  |  | 
COC(=O)N[C@H](NC(=O)N1CCC[C@H]1c1nc2ncc(-c3ccc4cc(-c5cnc([C@@H]6CCCN6C(=O)[C@@H](NC(=O)OC)C(C)C)[nH]5)ccc4c3)cc2[nH]1)C(C)C | 6.6 nM | 0.026 nM | 0.23 nM |  |  | 
COC(=O)N[C@H](NC(=O)N1CCC[C@H]1c1nc2ccc(-c3ccc4cc(-c5cnc([C@@H]6CCCN6C(=O)[C@@H](NC(=O)OC)[C@@H](C)OC)[nH]5)ccc4c3)cc2[nH]1)C(C)C | 1.6 nM | 0.022 nM | 0.1 nM |  |  | 
COC(=O)N[C@H](NC(=O)N1CCC[C@H]1c1nc2ccc(-c3ccc4cc(-c5cnc([C@@H]6CCCN6C(=O)[C@@H](NC(=O)OC)C(C)C)[nH]5)ccc4c3)nc2[nH]1)C(C)C | 2.1 nM | 0.025 nM | 0.08 nM |  |  | 
COC(=O)N[C@H](NC(=O)N1CCC[C@H]1c1nc2ccc(-c3ccc4cc(-c5cnc([C@@H]6CCCN6C(=O)[C@@H](NC(=O)OC)C6CCOCC6)[nH]5)ccc4c3)cc2[nH]1)C1CCOCC1 | 1.1 nM | 0.113 nM | 0.13 nM |  |  | 
CC[C@@H](C)[C@H](NC(=O)OC)NC(=O)N1CCC[C@H]1c1nc2ccc(-c3ccc4cc(-c5cnc([C@@H]6CCCN6C(=O)[C@@H](NC(=O)OC)[C@H](C)CC)[nH]5)ccc4c3)cc2[nH]1 | 9.5 nM | 0.009 nM | 0.6 nM |  |  | 
COC(=O)N[C@H](NC(=O)N1CCC[C@H]1c1nc2ccc(-c3ccc4cc(-c5cnc([C@@H]6CCCN6C(=O)[C@@H](NC(=O)OC)C6CCCC6)[nH]5)ccc4c3)cc2[nH]1)C1CCCC1 | 2.4 nM | 0.003 nM | 0.05 nM |  |  | 
COC(=O)N[C@H](NC(=O)N1CCC[C@H]1c1nc2cnc(-c3ccc4cc(-c5cnc([C@@H]6CCCN6C(=O)[C@@H](NC(=O)OC)C(C)C)[nH]5)ccc4c3)cc2[nH]1)C(C)C | 15 nM | 0.052 nM | 1.2 nM |  |  | 

More lines, main results first:

EC50 [1] | EC50 [2] | EC50 [3] | SMILES | EC50 [4] | EC50 [5] | EC50 [6]
0.86 nM | 0.023 nM | 0.05 nM | COC(=O)N[C@H](NC(=O)N1CCC[C@H]1c1nc2ccc(-c3ccc4cc(-c5cnc([C@@H]6CCCN6C(=O)[C@@H](NC(=O)OC)C(C)C)[nH]5)ccc4c3)cc2[nH]1)C1CCOCC1 |  |  | 
0.06 nM | 0.011 nM | 0.11 nM | COC(=O)N[C@@H](NC(=O)N1CCC[C@H]1c1nc2ccc(-c3ccc4cc(-c5cnc([C@@H]6CCCN6C(=O)[C@@H](NC(=O)OC)C(C)C)[nH]5)ccc4c3)cc2[nH]1)c1ccccc1 |  |  | 
1.1 nM | 0.042 nM | 0.26 nM | COC(=O)N[C@H](NC(=O)N1CCC[C@H]1c1nc2ccc(-c3ccc4cc(-c5cnc([C@@H]6CCCN6C(=O)[C@@H](NC(=O)OC)C(C)C)[nH]5)ccc4n3)cc2[nH]1)C(C)C |  |  | 
0.89 nM | 0.03 nM | 0.08 nM | COC(=O)N[C@H](NC(=O)N1CCC[C@H]1c1nc2ccc(-c3ccc4cc(-c5cnc([C@@H]6CCCN6C(=O)[C@@H](NC(=O)OC)C6CCOCC6)[nH]5)ccc4c3)cc2[nH]1)C(C)C |  |  | 
0.03 nM | 0.014 nM | 0.22 nM | COC(=O)N[C@H](NC(=O)N1CCC[C@H]1c1nc2ccc(-c3ccc4cc(-c5cnc([C@@H]6CCCN6C(=O)[C@H](NC(=O)OC)c6ccccc6)[nH]5)ccc4c3)cc2[nH]1)C(C)C |  |  | 
1 nM | 0.015 nM | 0.07 nM | CC[C@H](C)[C@H](NC(=O)OC)NC(=O)N1CCC[C@H]1c1nc2ccc(-c3ccc4cc(-c5cnc([C@@H]6CCCN6C(=O)[C@@H](NC(=O)OC)[C@@H](C)OC)[nH]5)ccc4c3)cc2[nH]1 |  |  | 
